Data taken from patent US8129371B2, “Thienopyrimidine and pyrazolopyrimidine compounds and their use as mTOR kinase and PI3 kinase inhibitors” (Wyeth LLC, priority 2007, dated 2012).
pIC50: −log10 of the molar value.

Legend:
[1] = system: prostate line LNCap; assay: In vitro cell culture growth assay (MTS), LNCap; format: cell-based; details: Homo sapiens, LNCaP, 72 h, LNCap cells, three days after drug treatment
Summary of the method: (§1)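 The readout was MTS dye metabolism at 490 nm, taken after 3-day drug exposure that began the day after seeding. Growth was expressed as percent of vehicle-treated wells in the same plate.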

[2] = system: breast line MDA468; assay: In vitro cell culture growth assay (MTS), MDA468; format: cell-based; details: Homo sapiens, 72 h, MDA468 cells, three days after drug treatment
Summary of the method: as §1

[3] = biological target: T1, Human mTOR (FLAG-TOR) (Homo sapiens, UniProt P42345); assay: Human mTOR kinase assay with purified enzyme, DELFIA format; format: biochemical
T1 construct: FLAG
Summary of the method: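 DELFIA readout: Eu-anti-P(T389)-S6K antibody (40 ng/mL, 1 h) on captured His6-S6K from the stopped reaction. Kinase step used purified FLAG-tagged human mTOR with test compound in HEPES (pH 7.4)/MnCl2/DTT buffer, 2 h at room temperature (linear 1–6 h), terminated by EDTA/EGTA.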

[4] = biological target: T2, PI3K (Homo sapiens, UniProt P42336); assay: Fluorescence polarization assay for PI3K; format: biochemical; details: PI3 Kinase α; read-out: PI3 Kinase α IC50
T2 construct: PI3 Kinase α IC50; other: PI3 Kinase α; other: PI3 Kinase α isoform, fluorescence polarization
T2 sequence (P42336 whole entry, canonical isoform): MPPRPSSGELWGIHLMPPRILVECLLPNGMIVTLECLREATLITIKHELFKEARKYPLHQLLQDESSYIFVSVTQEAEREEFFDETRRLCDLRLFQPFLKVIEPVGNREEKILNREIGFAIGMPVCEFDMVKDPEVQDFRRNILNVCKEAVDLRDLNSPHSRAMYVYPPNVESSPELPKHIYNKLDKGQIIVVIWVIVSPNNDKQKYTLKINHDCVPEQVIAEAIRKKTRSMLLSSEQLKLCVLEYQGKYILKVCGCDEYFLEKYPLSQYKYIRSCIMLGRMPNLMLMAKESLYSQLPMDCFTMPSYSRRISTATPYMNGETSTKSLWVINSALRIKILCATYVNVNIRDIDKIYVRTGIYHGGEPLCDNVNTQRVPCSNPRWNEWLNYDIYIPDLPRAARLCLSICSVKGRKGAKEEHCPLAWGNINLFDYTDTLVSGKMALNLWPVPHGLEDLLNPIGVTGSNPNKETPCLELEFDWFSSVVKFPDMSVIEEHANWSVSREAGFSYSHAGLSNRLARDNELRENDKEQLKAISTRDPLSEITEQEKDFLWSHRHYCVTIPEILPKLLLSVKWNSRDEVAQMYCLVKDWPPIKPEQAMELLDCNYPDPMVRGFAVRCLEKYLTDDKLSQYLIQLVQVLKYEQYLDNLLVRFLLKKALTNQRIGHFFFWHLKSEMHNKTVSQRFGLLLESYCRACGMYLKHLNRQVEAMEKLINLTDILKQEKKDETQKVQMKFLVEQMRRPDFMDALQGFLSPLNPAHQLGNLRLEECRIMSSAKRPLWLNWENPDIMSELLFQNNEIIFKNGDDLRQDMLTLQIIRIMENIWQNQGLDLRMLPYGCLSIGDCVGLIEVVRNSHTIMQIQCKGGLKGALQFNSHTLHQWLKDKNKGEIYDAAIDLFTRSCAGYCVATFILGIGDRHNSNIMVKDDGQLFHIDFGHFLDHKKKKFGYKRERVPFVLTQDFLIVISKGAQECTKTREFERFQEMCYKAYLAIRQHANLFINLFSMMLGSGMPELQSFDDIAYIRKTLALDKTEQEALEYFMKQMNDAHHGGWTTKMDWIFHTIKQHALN
Summary of the method: (§2)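 Fluorescence-polarization competition readout: after 30–60 min of PIP2/ATP turnover in 1% DMSO, a stop mix with GST-GRP (70 nM) and red probe (10 nM) was added.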

[5] = biological target: T3, PI3K (Homo sapiens, UniProt P48736); assay: Fluorescence polarization assay for PI3K; format: biochemical; details: PI3 Kinase γ; read-out: PI3 Kinase γ IC50
T3 construct: PI3 Kinase γ IC50; other: PI3 Kinase γ; other: PI3 Kinase γ isoform, fluorescence polarization
T3 sequence (P48736 whole entry, canonical isoform): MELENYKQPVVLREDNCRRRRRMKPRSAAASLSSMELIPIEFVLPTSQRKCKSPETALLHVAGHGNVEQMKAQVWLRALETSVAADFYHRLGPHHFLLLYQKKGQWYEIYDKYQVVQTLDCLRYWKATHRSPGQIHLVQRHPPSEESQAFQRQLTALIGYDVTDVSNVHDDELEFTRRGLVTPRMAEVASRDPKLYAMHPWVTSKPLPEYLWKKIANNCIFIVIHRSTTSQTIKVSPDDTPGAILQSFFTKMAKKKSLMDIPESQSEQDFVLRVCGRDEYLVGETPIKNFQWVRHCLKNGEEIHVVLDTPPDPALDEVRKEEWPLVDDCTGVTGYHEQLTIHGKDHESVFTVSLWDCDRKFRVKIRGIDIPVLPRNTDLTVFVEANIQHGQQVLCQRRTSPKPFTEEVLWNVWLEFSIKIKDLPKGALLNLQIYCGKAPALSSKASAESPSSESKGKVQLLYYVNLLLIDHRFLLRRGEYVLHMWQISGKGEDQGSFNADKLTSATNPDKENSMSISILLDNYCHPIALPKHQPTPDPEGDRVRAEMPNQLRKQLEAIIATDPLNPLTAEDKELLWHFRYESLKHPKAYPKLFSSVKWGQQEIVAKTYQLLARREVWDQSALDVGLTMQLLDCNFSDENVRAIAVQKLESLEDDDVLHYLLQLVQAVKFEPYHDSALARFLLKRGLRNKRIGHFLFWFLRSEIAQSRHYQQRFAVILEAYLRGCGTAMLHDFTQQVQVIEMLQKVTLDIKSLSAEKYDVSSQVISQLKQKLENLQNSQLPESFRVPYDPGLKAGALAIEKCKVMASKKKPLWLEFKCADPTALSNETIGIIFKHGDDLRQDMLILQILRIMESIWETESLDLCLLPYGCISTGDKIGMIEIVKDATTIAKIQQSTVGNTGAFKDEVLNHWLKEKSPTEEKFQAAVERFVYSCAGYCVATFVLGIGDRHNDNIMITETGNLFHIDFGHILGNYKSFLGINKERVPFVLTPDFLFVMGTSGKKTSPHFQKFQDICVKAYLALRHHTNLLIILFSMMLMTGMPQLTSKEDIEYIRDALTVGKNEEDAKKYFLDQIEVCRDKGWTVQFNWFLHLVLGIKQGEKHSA
Summary of the method: as §2

pIC50 [1] | pIC50 [3] | pIC50 [4] | pIC50 [5] | Structure (SMILES) | pIC50 [2]
6.68 | 8.82 | 6.14 | < 5.00 | CNC(=O)Nc1ccc(-c2nc(N3CC4CCC(C3)O4)c3cnn(CCC#N)c3n2)cc1 [Example 214, 1-{4-[1-(2-cyanoethyl)-4-(8-oxa-3-azabicyclo[3.2.1]oct-3-yl)-1H-pyrazolo[3,4-d]pyrimidin-6-yl]phenyl}-3-methylurea] | 6.24
7.11 | 8.87 | 5.44 | < 5.00 | N#CCCn1ncc2c(N3CC4CCC(C3)O4)nc(-c3ccc(NC(=O)NC4CC4)cc3)nc21 [Example 215, 1-{4-[1-(2-cyanoethyl)-4-(8-oxa-3-azabicyclo[3.2.1]oct-3-yl)-1H-pyrazolo[3,4-d]pyrimidin-6-yl]phenyl}-3-cyclopropylurea] | 6.10
8.40 | 9.59 | 6.91 | 5.48 | N#CCCn1ncc2c(N3CC4CCC(C3)O4)nc(-c3ccc(NC(=O)Nc4cccnc4)cc3)nc21 [Example 216, 1-{4-[1-(2-cyanoethyl)-4-(8-oxa-3-azabicyclo[3.2.1]oct-3-yl)-1H-pyrazolo[3,4-d]pyrimidin-6-yl]phenyl}-3-pyridin-3-ylurea] | 7.26
> 9.00 | 9.77 | 6.95 | 6.46 | N#CCCn1ncc2c(N3CC4CCC(C3)O4)nc(-c3ccc(NC(=O)Nc4ccncc4)cc3)nc21 [Example 217, 1-{4-[1-(2-cyanoethyl)-4-(8-oxa-3-azabicyclo[3.2.1]oct-3-yl)-1H-pyrazolo[3,4-d]pyrimidin-6-yl]phenyl}-3-pyridin-4-ylurea] | 9.00
> 9.00 | 9.91 | 7.40 | 5.66 | N#CCCn1ncc2c(N3CC4CCC(C3)O4)nc(-c3ccc(NC(=O)Nc4ccc(CO)cc4)cc3)nc21 [Example 218, 1-{4-[1-(2-cyanoethyl)-4-(8-oxa-3-azabicyclo[3.2.1]oct-3-yl)-1H-pyrazolo[3,4-d]pyrimidin-6-yl]phenyl}-3-[4-(hydroxymethyl)phenyl]urea] | > 9.00
> 9.00 | 10.09 | 7.36 | 5.86 | N#CCCn1ncc2c(N3CC4CCC(C3)O4)nc(-c3ccc(NC(=O)Nc4ccc(CCO)cc4)cc3)nc21 [Example 219, 1-{4-[1-(2-cyanoethyl)-4-(8-oxa-3-azabicyclo[3.2.1]oct-3-yl)-1H-pyrazolo[3,4-d]pyrimidin-6-yl]phenyl}-3-[4-(2-hydroxyethyl)phenyl]urea] | > 9.00
> 9.00 | 9.63 | 6.35 | 5.32 | N#CCCn1ncc2c(N3CC4CCC(C3)O4)nc(-c3ccc(NC(=O)Nc4ccc(N5CCOCC5)cc4)cc3)nc21 [Example 221, 1-{4-[1-(2-cyanoethyl)-4-(8-oxa-3-azabicyclo[3.2.1]oct-3-yl)-1H-pyrazolo[3,4-d]pyrimidin-6-yl]phenyl}-3-(4-morpholin-4-ylphenyl)urea] | 8.52
9.00 | 9.39 | 6.84 | 5.58 | CN1CCN(c2ccc(NC(=O)Nc3ccc(-c4nc(N5CC6CCC(C5)O6)c5cnn(CCC#N)c5n4)cc3)cn2)CC1 [Example 222, 1-{4-[1-(2-cyanoethyl)-4-(8-oxa-3-azabicyclo[3.2.1]oct-3-yl)-1H-pyrazolo[3,4-d]pyrimidin-6-yl]phenyl}-3-[6-(4-methylpiperazin-1-yl)pyridin-3-yl]urea] | 8.10

Second part, the compound before the results:

Structure (SMILES) | pIC50 [1] | pIC50 [3] | pIC50 [4] | pIC50 [5] | pIC50 [2]
CN1CCN(c2ccc(NC(=O)Nc3ccc(-c4nc(N5CC6CCC(C5)O6)c5cnn(CCO)c5n4)cc3)cc2)CC1 [Example 203, 1-{4-[1-(2-hydroxyethyl)-4-(8-oxa-3-azabicyclo[3.2.1]oct-3-yl)-1H-pyrazolo[3,4-d]pyrimidin-6-yl]phenyl}-3-[4-(4-methylpiperazin-1-yl)phenyl]urea] | 9.00 | 8.97 | 6.98 | 5.94 | 8.70
O=C(Nc1ccc(-c2nc(N3CC4CCC(C3)O4)c3cnn(CCO)c3n2)cc1)Nc1ccc(N2CCOCC2)cc1 [Example 204, 1-{4-[1-(2-hydroxyethyl)-4-(8-oxa-3-azabicyclo[3.2.1]oct-3-yl)-1H-pyrazolo[3,4-d]pyrimidin-6-yl]phenyl}-3-(4-morpholin-4-ylphenyl)urea] | 8.22 | 9.31 | 6.56 | 4.95 | 7.46
CN1CCN(c2ccc(NC(=O)Nc3ccc(-c4nc(N5CC6CCC(C5)O6)c5cnn(CCO)c5n4)cc3)cn2)CC1 [Example 205, 1-{4-[1-(2-hydroxyethyl)-4-(8-oxa-3-azabicyclo[3.2.1]oct-3-yl)-1H-pyrazolo[3,4-d]pyrimidin-6-yl]phenyl}-3-[6-(4-methylpiperazin-1-yl)pyridin-3-yl]urea] | 7.05 | 8.77 | 6.69 | 5.45 | 7.10
O=C(Nc1ccc(-c2nc(N3CC4CCC(C3)O4)c3cnn(CCO)c3n2)cc1)Nc1ccc(N2CCOCC2)nc1 [Example 206, 1-{4-[1-(2-hydroxyethyl)-4-(8-oxa-3-azabicyclo[3.2.1]oct-3-yl)-1H-pyrazolo[3,4-d]pyrimidin-6-yl]phenyl}-3-(6-morpholin-4-ylpyridin-3-yl)urea] | 6.72 | 9.15 | 6.33 | 4.93 | 6.92
Nc1ccc(-c2nc(N3CC4CCC(C3)O4)c3cnn(CCO)c3n2)cc1 [Example 207, 2-[6-(4-aminophenyl)-4-(8-oxa-3-azabicyclo[3.2.1]oct-3-yl)-1H-pyrazolo[3,4-d]pyrimidin-1-yl]ethanol] | 4.85 | 6.84 | 5.44 | < 5.00 | 4.42
CCOC(=O)Nc1ccc(-c2nc(N3CC4CCC(C3)O4)c3cnn(CCO)c3n2)cc1 [Example 208, ethyl {4-[1-(2-hydroxyethyl)-4-(8-oxa-3-azabicyclo[3.2.1]oct-3-yl)-1H-pyrazolo[3,4-d]pyrimidin-6-yl]phenyl}carbamate] | 6.66 | 8.09 | 5.73 | < 5.00 | 6.05
O=C(Nc1ccc(-c2nc(N3CC4CCC(C3)O4)c3cnn(C4CCN(CC(F)(F)F)CC4)c3n2)cc1)OCCO [Example 209, 2-hydroxyethyl (4-{4-(8-oxa-3-azabicyclo[3.2.1]oct-3-yl)-1-[1-(2,2,2-trifluoroethyl)piperidin-4-yl]-1H-pyrazolo[3,4-d]pyrimidin-6-yl}phenyl)carbamate] | 7.40 | 8.65 | 5.43 | 5.31 | 6.22
O=C(Nc1ccc(-c2nc(N3CC4CCC(C3)O4)c3cnn(C4CCN(Cc5cccnc5)CC4)c3n2)cc1)OCCO [Example 210, 2-hydroxyethyl (4-{4-(8-oxa-3-azabicyclo[3.2.1]oct-3-yl)-1-[1-(pyridin-3-ylmethyl)piperidin-4-yl]-1H-pyrazolo[3,4-d]pyrimidin-6-yl}phenyl)carbamate] | 8.40 | 9.03 | 5.76 | < 5.00 | 6.96
O=C1CCC(n2ncc3c(N4CC5CCC(C4)O5)nc(-c4ccc(NC(=O)OCCO)cc4)nc32)CC1 [Example 211, 2-hydroxyethyl {4-[4-(8-oxa-3-azabicyclo[3.2.1]oct-3-yl)-1-(4-oxocyclohexyl)-1H-pyrazolo[3,4-d]pyrimidin-6-yl]phenyl}carbamate] | 7.77 | 9.05 | 5.67 | < 5.00 | 6.92
O=C(Nc1ccc(-c2nc(N3CC4CCC(C3)O4)c3cnn(C4CCC(O)CC4)c3n2)cc1)OCCO (stereo not shown) [Example 212, 2-hydroxyethyl {4-[1-(4-hydroxycyclohexyl)-4-(8-oxa-3-azabicyclo[3.2.1]oct-3-yl)-1H-pyrazolo[3,4-d]pyrimidin-6-yl]phenyl}carbamate] | 7.38 | 9.25 | 5.40 | < 5.00 | 6.72
N#CCCn1ncc2c(N3CC4CCC(C3)O4)nc(-c3ccc(NC(=O)OCCO)cc3)nc21 [Example 213, 2-hydroxyethyl {4-[1-(2-cyanoethyl)-4-(8-oxa-3-azabicyclo[3.2.1]oct-3-yl)-1H-pyrazolo[3,4-d]pyrimidin-6-yl]phenyl}carbamate] | 6.82 | 8.90 | 5.34 | < 5.00 | 6.00
CN1CCN(c2ccc(NC(=O)Nc3ccc(-c4nc(N5CC6CCC(C5)O6)c5cnn(CCC#N)c5n4)cc3)cc2)CC1 [Example 220, 1-{4-[1-(2-cyanoethyl)-4-(8-oxa-3-azabicyclo[3.2.1]oct-3-yl)-1H-pyrazolo[3,4-d]pyrimidin-6-yl]phenyl}-3-[4-(4-methylpiperazin-1-yl)phenyl]urea] | 8.40 | 9.32 | 7.13 | 5.78 | 8.00
